Results taken from patent publication EP0263213B1, “C20 Through C26 amino steroids” (THE UPJOHN COMPANY, priority 1986, dated 1988).

Tests used:
chick embryo = experiment: fertile egg or chick embryo assay of Folkman (angiogenesis); type: in vivo; settings: 50 »g/10 »l in the presence of heparin
From the text: According to this procedure compounds which are considered to be "active" (i.e. antiangiogenic) give an avascular zone of 4 mm or greater in some embryos when tested at 50 »g/10 »l in the presence of 50 »g/10 » of heparin.

arachidonic acid = experiment: Arachidonic Acid Antagonism Assay (AAAA); type: in vivo; settings: active = elevates the LD50 of sodium arachidonate outside the 95% confidence interval of the control LD50; test compound IV 15 minutes before; male CF-1 mice
Description: Since these metabolites contribute to the pathological problems associated with stroke, spinal trauma and head injury, compounds which antagonize arachidonic acid are useful in treating stroke, spinal trauma and head injury.
While not necessary to determine arachidonic acid antagonism, the above assay has been modified as follows: Charles River male CF-1 mice weighing 18-22g are treated IV with the test compound dissolved in 1.0% Tween-80 and 0.1% hydrochloric acid in distilled water, 0.2 ml total volume. Fifteen minutes later sodium arachidonate (90% pure) in physiological (normal) saline is injected into the tail vein. The LD₅₀ is measured using the Spearman-Karber method with a log dose interval of 0.05 (N=6). Compounds which elevate the LD₅₀ outside of the 95% confidence interval of the control LD₅₀ are considered to be "active".

rat brain synaptosomes [1] = experiment: Conjugated Diene Formation Assay; type: biochemical; settings: active = inhibits conjugated diene formation by 50% or more; 100 »M (or less) of drug, 100 »M hydrogen peroxide, 200 »M ferrous ammonium sulfate
From the text: The formation of conjugated dienes as assayed by Braughler, J. Neurochem., 44, 1282 (1985), Bucher, Fund. Applied Tox., 3, 222 (1983) and Tein, Arch. Biochem. Biophy., 216, 142 (1982) is a standard pharmacological laboratory procedure useful for identifying compounds which inhibit lipid peroxidation. Since lipid peroxidation is involved in the pathophysiology of central nervous system trauma, compounds which inhibit conjugated diene formation are useful in treating the conditions listed below.
44, 1282 (1985). Synaptosomal suspension (10 »l) is added to 1 ml of physiological (normal) saline containing 1 % Lubrol PX (Sigma Chemical Co. St. Louis, Mo.), 100 »M hydrogen peroxide and 100 »M (or less) of the drug to be tested prepared in either absolute ethanol or water depending upon solubility. The reaction is started by the rapid addition of 200 »M ferrous ammonium sulfate is prepared in argon-purged water. The sample is rapidly mixed and the change in absorbance at 232nm is followied in a Gilford Response Spectrophotometer equipped with a rapid sampler. Due to the rapidity of the reaction, rapid addition of the iron, rapid mixing and sampling are obligatory to the accuracy of the assay. For best results absorbance readings of one/sec should be started within 5 sec following the addition of iron. The initial linear rate of absorbance change during the first 30 sec of reaction are compared with the rate of a reaction containing all reagents except synaptosomes. The difference in rates is the rate of conjugated diene formation. Rates with drug are compared to rates obtained in the absence of drug and the % inhibition is calculated. A compound that inhibits conjugated diene formation by 50% or more is considered to be "active".

mucous secretion = experiment: inhibition of mucous secretion assay of Johnson; settings: active = inhibits or blocks enhancement of induced mucous secretions
From the text: The inhibition of mucous secretion assay of Johnson Int. […] According to this procedure compounds which inhibit or block enhancement of induced mucous secretions when tested are considered to be "active".

ACAT = experiment: AcylCoA:Cholesterol Acyltransferase (ACAT) Inhibition Assay; type: cell-based; settings: for inhibiting ACAT: active = inhibits ACAT activity equal to, or greater than, that of chlorpromazine
From the text: ACAT esterifies arterial cholesterol which is a key reaction in the development of atherosclerosis. The procedure of Bell, Can. […] In the ACAT assay it is preferred to use Fu5AH cells, see Lipids 9, 526 (1974). According to this procedure, compounds which inhibit ACAT activity equal to, or greater than, that of chlorpromazine are considered "active".

SEA Japanese Quail = experiment: Antiatherosclerosis Screen in SEA Japanese Quail; type: in vivo; settings: quail fed an atherogenic diet; active = decrease of serum or arterial cholesterol > 30 %
[2] = tested on: aspirin/cold induced ulcer; experiment: aspirin/cold induced ulcer assay of Rainsford; type: in vivo; settings: active = 50% or more reduction of ulcer index
From the text: According to this procedure compounds which give a 50% or more reduction of ulcer index are considered to be "active".

mouse head injury = experiment: in vivo mouse head injury procedure of Hall (1 hr post-injury grip test); settings: 1 hr after head injury, statistically significant (p < 0.05)
rat brain synaptosomes [3] = experiment: Malonyldialdehyde (MDA) Formation Assay; type: biochemical; settings: active = inhibits MDA formation by 50% or more at 200»M or less; 10 min at 37°, pH 7.0, 150 uM Fe+++ and 50 uM Fe++
Description: Since lipid peroxidation is involved in the pathophysiology of central nervous system trauma, compounds which inhibit MDA formation are useful in treating the conditions listed below.
While not necessary to determine MDA formation, the above assays have been modified as follows: rat brain synaptosomes are prepared as described in the Example about the conjugated diene assay, except that the final wash of the synaptosomes and final suspension are in physiological (normal) saline in which the pH has been adjusted to 7.0. The synaptosomes are incubated for 10 min at 37° in physiological (normal) saline pH 7.0 (total volume = 100 ul) containing; 10 ul synaptosomal suspension, 10% DMSO plus or minus drug, 150 uM Fe⁺⁺⁺ and 50 uM Fe++. The incubation is started by the rapid addition of iron to the otherwise complete reaction. The iron solutions are prepared fresh as ferric chloride and ferrous ammonium sulfate in argon-purged water. Following the 10 min incubation, the reaction is stopped by the addition of 500 ul ice-cold 12% trichloroacetic acid prepared in 0.5 N hydrochoric acid. Water (300 ul) is then added along with 100 ul of freshly prepared thiobarbituric acid (3.3% in 0.5N sodium hydroxide) and 10 ul of 5mM desferrioxamine. The sample is then heated in a boiling water bath for 20 minutes. The samples are cooled and centrifuged for 15 minutes at 1500 xg and the absorbance of the supernatant fraction is read at 532 nm. The % inhibition of MDA formation is calculated by dividing the absorbance of sample containing drug by the absorbance of samples incubated without drug. Reaction blanks are samples incubated in the absence of iron. A compound that inhibits MDA formation by 50% or more at a concentration of 200»M or less is considered "active".

interleukin-1 = experiment: inhibition of interleukin-1 induced T cell proliferation assay; type: cell-based; settings: for % Inhibition at 10⁻⁶ M: interleukin-1 induced T cell proliferation
From the text: The inhibition of interleukin-1 induced T cell proliferation assay, Proc. Nat. […] Since people with arthritis make excess interleukin 1, compounds which inhibit the activity of interleukin 1 are useful in the treatment of arthritis. According to this procedure compounds which inhibit the activity of interleukin 1 greater that 30% at 10⁻⁶ M are considered to be "active".

11α,17α-Dihydroxy-21-[4-(2-pyridinyl)-1-piperazinyl]pregn-4-ene-3,20-dione 11-(3,3-dimethyl-1-butyrate dihydrochloride [Example 28]
% of Embryos with 4 mm or Greater Avascular Zone (chick embryo): 73%

CS(=O)(=O)O.C[C@]12CCC(=O)C=C1CC[C@@H]1C2=CC[C@@]2(C)[C@H]1CC[C@]2(O)C(=O)CN1CCN(c2ccccn2)CC1 [Example 2, 17α-Hydroxy-21-[4-(2-pyridinyl)-1-piperazinyl]pregna-4,9(11)-diene-3,20-dione methanesulfonate]
arachidonic acid antagonism (arachidonic acid): demonstrate arachidonic acid antagonism
inhibition of conjugated diene formation (rat brain synaptosomes [1]): demonstrate such activity by inhibition of conjugated dienes
inhibition of mucous secretion (mucous secretion; methanesulfonate): preferred mucous inhibitors

C[C@]12CCC(=O)C=C1CC[C@@H]1C2=CC[C@@]2(C)[C@H]1CC[C@]2(O)C(=O)CN1CCN(c2ccccn2)CC1.Cl [Example 3, 17α-Hydroxy-21-[4-(2-pyridinyl)-1-piperazinyl]pregna-4,9(11)-diene-3,20-dione hydrogen chloride salt]
% Inhibition of ACAT (5 »g/ml) (ACAT): 63.9%
inhibiting ACAT (ACAT): active in inhibiting ACAT
reduction of serum and arterial cholesterol (SEA Japanese Quail): demonstrates reduction of serum and arterial cholesterol

CN(C)c1cc(N2CCN(CC(=O)[C@@]3(O)CC[C@H]4[C@@H]5CCC6=CC(=O)CC[C@]6(C)C5=CC[C@@]43C)CC2)nc(N(C)C)n1.Cl.Cl.O [Example 16, 17α-Hydroxy-21-[4-[2,6-bis(dimethylamino)-4-pyrimidinyl]-1-piperazinyl]pregna-4,9(11)-diene-3,20-dione dihydrochloride hydrate]
anti-ulcer activity [2]: demonstrates anti-ulcer activity
% of Embryos with 4 mm or Greater Avascular Zone (chick embryo): 91%
inhibition of mucous secretion (mucous secretion): demonstrate such activity

CCN(CC)c1cc(N2CCN(CC(=O)[C@@]3(O)[C@H](C)C[C@H]4[C@@H]5CCC6=CC(=O)C=C[C@]6(C)C5=CC[C@@]43C)CC2)nc(N(CC)CC)n1.Cl.O [Example 18, 21-[4-[2,6-Bis(diethylamino)-4-pyrimidinyl]-1-piperazinyl]-17α-hydroxy-16α-methylpregna-1,4,9(11)-triene-3,20-dione hydrochloride hydrate]
% Increase in 1 hr Post-Injury Grip Test Scores After 3 mg/kg (mouse head injury): 112.6%
% Inhibition of ACAT (5 »g/ml) (ACAT): 48.4%
inhibiting ACAT (ACAT): active in inhibiting ACAT

CS(=O)(=O)O.CS(=O)(=O)O.C[C@@H]1C[C@H]2[C@@H]3CCC4=CC(=O)C=C[C@]4(C)C3=CC[C@]2(C)[C@H]1C(=O)CN1CCN(c2cc(N3CCCC3)nc(N3CCCC3)n2)CC1 [Example 83, 16α-Methyl-21-[4-[2,6-bis(pyrrolidino)-4-pyrimidyl]-1-piperazinyl]pregna-1,4,9(11)-triene-3,20-dione dimethane-sulfonate]
% Increase in 1 hr Post-Injury Grip Test Scores After 3 mg/kg (mouse head injury): 134.5%
inhibition of MDA formation (rat brain synaptosomes [3]): demonstrate such activity by inhibition of MDA formation
inhibition of conjugated diene formation (rat brain synaptosomes [1]): demonstrate such activity by inhibition of conjugated dienes
inhibition of mucous secretion (mucous secretion): preferred mucous inhibitors
% Inhibition at 10⁻⁶ M (interleukin-1): 62%

C[C@@H]1C[C@H]2[C@@H]3CCC4=CC(=O)C=C[C@]4(C)C3=CC[C@]2(C)[C@H]1C(=O)CN1CCN(c2cc(N3CCOCC3)nc(N3CCOCC3)n2)CC1 [Example 86]
inhibition of MDA formation (rat brain synaptosomes [3]): demonstrate such activity by inhibition of MDA formation
inhibition of conjugated diene formation (rat brain synaptosomes [1]): demonstrate such activity by inhibition of conjugated dienes
% Inhibition at 10⁻⁶ M (interleukin-1): 84%

C[C@]12CCC(=O)C=C1CC[C@@H]1C2=CC[C@@]2(C)[C@H]1CC[C@]2(O)C(=O)CN1CCN(c2cc(N3CCOCC3)nc(N3CCOCC3)n2)CC1.Cl.Cl.O [Example 105, 21-[4-(2,6-Bis(4-morpholinyl)-4-pyrimidinyl)-1-piperazinyl]-17α-hydroxypregna-4,9(11)-diene-3,20-dione dihydrochloride, hydrate]
inhibition of mucous secretion (mucous secretion; dihydrochloride, hydrate): preferred mucous inhibitors
% Inhibition at 10⁻⁶ M (interleukin-1): 76%

CCN(CC)c1ccc(N2CCN(CC(=O)[C@H]3CC[C@H]4[C@@H]5CCC6=CC(=O)C=C[C@]6(C)[C@H]5CC[C@]34C)CC2)nc1N(CC)CC.Cl.Cl [Example 120]
inhibition of MDA formation (rat brain synaptosomes [3]): demonstrate such activity by inhibition of MDA formation
% Inhibition at 10⁻⁶ M (interleukin-1): 56%
inhibition of interleukin 1 (interleukin-1; active = inhibits the activity of interleukin 1 greater than 30% at 10⁻⁶ M): demonstrate inhibition of interleukin 1
